Where two headings read alike, the source gives them in different places.
How the values were obtained:
[1] = pharmacokinetic properties test in rats; format: in vivo; details: SD rat, single, plasma; for MRT last: read-out: MRT0-t; for Vd: read-out: Vss
Experimental: (§1) The pharmacokinetic properties of the compounds of the present disclosure in different animal species were investigated by measuring plasma drug concentrations following intravenous and oral gavage in mouse, rat, and dog.
(§2) i. The compounds were weighed, then the solvent (5% DMSO + 10% Solutol + 85% saline) was added to prepare the administration solution. ii. On the day before the experiment, animals in the oral administration group were fasted overnight (10-14 hours) and fed 4 hours after administration. iii. At each time point after administration, approximately 30 µL of venous blood was collected from an appropriate location in each group of animals and placed in a sodium heparin tube. Blood samples were placed on ice and centrifuged within 1 hour to separate plasma (centrifugation conditions: 6800 g, 6 min, 2-8°C). Plasma samples were stored at -80°C until analysis.
(§3) b) An LC-MS/MS analytical method was developed for measuring compound concentrations in mouse, rat, and dog plasma. This method was used to determine compound concentrations in biological samples obtained in this assay.
(§4) Pharmacokinetic parameters were calculated using Phoenix WinNonlin 7.0 using plasma drug concentration data at different time points.

[2] = target: T1, PKR in ex vivo red blood cells of patients with thalassemia (Homo sapiens, UniProt P30613); assay: ex vivo pyruvate kinase (PKR) activity experiment, red blood cells of patients with thalassemia; format: cell-based
T1 construct: endogenous in cells; host or cells: human red blood cells of thalassemia patients (Patients A-D)
Experimental: To test the effects of the compound of the present disclosure on PKR activation in ex vivo red blood cells from healthy individuals and patients with thalassemia.
• i. 5 g of glucose, 85 mg of adenine, and 2.625 g of mannitol were weighed and added into a 50 mL centrifuge tube. 40 mL of PBS was added to dissolve (sonicate for 30 minutes until completely dissolved). The solution was filtered through a 0.22 µm filter, then added to 460 mL of sterile PBS and mixed thoroughly.
• i. Fresh human peripheral blood was collected. K2EDTA was used as the anticoagulant. 1 part anticoagulant with 9 parts blood was mixed, then centrifuged at 500 g for 10 minutes at room temperature to remove the plasma. • ii. Packed red blood cells: 1.5 volumes of PBS were added, then centrifuged at 2000 ×g for 5 minutes at room temperature. After centrifugation, the supernatant was removed. This step was repeated twice. • iii. Diluted red blood cells: 1.5 volumes of PBS were added, then resuspended and mixed thoroughly. • iv. The diluted red blood cells were slowly added to 0.5 volume of 70% isotonic solution (e.g., 7.5 mL of diluted red blood cells + 3 mL of 70% isotonic solution Percoll) and centrifuged at 4000 ×g for 20 minutes at 4°C. • v. The supernatant was removed. The red blood cells at the bottom were washed once with 4-5 mL of PBS to elute the Percoll gel, and then centrifuged at 2000 ×g for 5 minutes at room temperature. • vi. The supernatant was removed. The red blood cells were counted and then diluted in AGAM medium containing 10% FBS to a density of 2 × 10^8 cells/mL for storage at 4°C.
i. The red blood cells were seeded into a 96-well plate at a uniform density of 1 × 10^7 cells/mL, with 100 µL per well. The test compounds (dissolved in DMSO) were diluted and added to the cell culture medium, resulting in final compound concentrations of 3000, 1000, 300, 100, 10, 3, and 1 nM (with 1% DMSO). The cells and compounds were co-cultivated for 3 hours in a 37°C incubator with 5% CO2. Subsequently, the plate was centrifuged at 2000 g for 20 minutes, and the supernatant was discarded. 100 µL of red blood cell lysis buffer was added to the cell pellet, vortexed for 20 minutes, and centrifuged at 4000 g for 5 minutes. The supernatant was collected for analysis. ii. The reaction system was prepared according to the kit instructions (shown as the table below), 10 µL of the reaction system was added to each well of a 384-well plate, and 10 µL of red blood cell lysis buffer was took and mixed well (20 µL reaction system).
iii. A black, transparent-bottomed 384-well plate was placed in a microplate reader to measure fluorescence at 540/590 nm. The fluorescence was read every 2 minutes for 1 hour.
i. The Slope value was calculated over the assay time. Compound activation percentage was calculated using the 1% DMSO well as the control well. Activation percentage = (Slope of compound well / Slope of control well) × 100% ii. Dose-response curve was fit using the logarithmic compound concentration on the X-axis and the percent activation percentage on the Y-axis, the log(agonist) vs. response - variable slope function in GraphPad Prism 5 was used to determine the AC50 value for each compound on PKR activity. Y = min + (max−min)/(1+10^(∧)((LogAC50−X)×Hillslope)). [formula] The PKR agonist effects of the compound of the present disclosure on ex vivo red blood cells from healthy individuals and thalassemia patients were determined using the above assay. The AC50 values measured on ex vivo red blood cells from healthy individuals are as follows (A represents 0-100 nM, B represents 101-300 nM, and C represents 300-1000 nM): […]

[3] = pharmacokinetic properties test in dogs; format: in vivo; details: dog, Beagle, single, plasma; for MRT last: read-out: MRT0-t; for Vd: read-out: Vss
Experimental: as §1, §2, §3, §4

[4] = pharmacokinetic properties test in mice; format: in vivo; details: ICR mouse, single, plasma; for MRT last: read-out: MRT0-t; for Vd: read-out: Vss
Experimental: as §1, §2, §3, §4

[5] = thalassemia Patient A, read-out: AC50 (nM) Patient A
[6] = thalassemia Patient B, read-out: AC50 (nM) Patient B
[7] = thalassemia Patient C, read-out: AC50 (nM) Patient C
[8] = thalassemia Patient D, read-out: AC50 (nM) Patient D

T1 sequence (P30613 whole entry): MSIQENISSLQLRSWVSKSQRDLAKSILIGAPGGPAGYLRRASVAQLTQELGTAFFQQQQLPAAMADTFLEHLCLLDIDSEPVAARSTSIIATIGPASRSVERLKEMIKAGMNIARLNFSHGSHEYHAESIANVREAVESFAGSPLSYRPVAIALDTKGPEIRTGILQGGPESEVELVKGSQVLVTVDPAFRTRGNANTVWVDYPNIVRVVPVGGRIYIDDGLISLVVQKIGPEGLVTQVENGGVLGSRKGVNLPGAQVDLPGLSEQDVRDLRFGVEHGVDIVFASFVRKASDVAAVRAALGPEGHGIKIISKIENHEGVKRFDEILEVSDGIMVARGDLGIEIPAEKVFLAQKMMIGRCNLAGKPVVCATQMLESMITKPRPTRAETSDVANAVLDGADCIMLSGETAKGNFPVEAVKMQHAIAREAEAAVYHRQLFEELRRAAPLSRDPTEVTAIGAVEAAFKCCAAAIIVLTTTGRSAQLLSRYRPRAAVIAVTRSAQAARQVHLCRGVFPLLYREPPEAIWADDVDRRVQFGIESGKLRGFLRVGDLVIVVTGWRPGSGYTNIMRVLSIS

| SMILES | AUC(0-t) ([1]; 1 mg/kg intravenous injection) | Cmax ([1]; 1 mg/kg intravenous injection) | Tmax ([1]; 1 mg/kg intravenous injection) | clearance ([1]; 1 mg/kg intravenous injection) | half-life ([1]; 1 mg/kg intravenous injection) | MRT last ([1]; 1 mg/kg intravenous injection) | Vd ([1]; 1 mg/kg intravenous injection) | AUC(0-t) ([1]; 10 mg/kg oral gavage, fasted) | Cmax ([1]; 10 mg/kg oral gavage, fasted) | Tmax ([1]; 10 mg/kg oral gavage, fasted) | half-life ([1]; 10 mg/kg oral gavage, fasted) | MRT last ([1]; 10 mg/kg oral gavage, fasted) | AC50 [2, 5] | AC50 [2, 6] | AC50 [2, 7] | AC50 [2, 8] | AUC(0-t) ([3]; 2 mg/kg intravenous injection) | Cmax ([3]; 2 mg/kg intravenous injection) | Tmax ([3]; 2 mg/kg intravenous injection) | clearance ([3]; 2 mg/kg intravenous injection) | also measured |
| --- | --- | --- | --- | --- | --- | --- | --- | --- | --- | --- | --- | --- | --- | --- | --- | --- | --- | --- | --- | --- | --- |
| N#Cc1ccc(S(=O)(=O)N2CC(=C3CN(C(=O)[C@H](CO)c4ccccc4)C3)C2)cc1 [Compound 65, (S)-4-(1'-(3-hydroxy-2-phenylpropionyl)-1',4'-dihydro-2H,2'H-[3,3'-diazetidinylidene]-1(4H)-ylsulfonyl)benzonitrile] | 394 ng·h/mL | 689 ng/mL | 0.08 h | 42.2 mL/min/kg | 0.64 h | 0.58 h | 1.56 L/kg | 1730 ng·h/mL | 993 ng/mL | 0.25 h | 1.53 h | 2.24 h | 251 nM | 84.4 nM | 140 nM | 145 nM | 8570 ng·h/mL | 1770 ng/mL | 0.14 h | 3.72 mL/min/kg | half-life ([3]; 2 mg/kg intravenous injection): 5.81 h; MRT last ([3]; 2 mg/kg intravenous injection): 5.53 h; Vd ([3]; 2 mg/kg intravenous injection): 1.55 L/kg; AUC(0-t) ([3]; 5 mg/kg oral gavage, fasted): 19500 ng·h/mL; Cmax ([3]; 5 mg/kg oral gavage, fasted): 2480 ng/mL; Tmax ([3]; 5 mg/kg oral gavage, fasted): 1.33 h; half-life ([3]; 5 mg/kg oral gavage, fasted): 4.47 h; MRT last ([3]; 5 mg/kg oral gavage, fasted): 5.28 h; AUC(0-t) ([4]; 1 mg/kg intravenous injection): 679 ng·h/mL; Cmax ([4]; 1 mg/kg intravenous injection): 945 ng/mL; Tmax ([4]; 1 mg/kg intravenous injection): 0.08 h; clearance ([4]; 1 mg/kg intravenous injection): 25.1 mL/min/kg; half-life ([4]; 1 mg/kg intravenous injection): 1.3 h; MRT last ([4]; 1 mg/kg intravenous injection): 0.91 h; Vd ([4]; 1 mg/kg intravenous injection): 1.5 L/kg; AUC(0-t) ([4]; 10 mg/kg oral gavage, fasted): 7880 ng·h/mL; Cmax ([4]; 10 mg/kg oral gavage, fasted): 4230 ng/mL; Tmax ([4]; 10 mg/kg oral gavage, fasted): 0.33 h; half-life ([4]; 10 mg/kg oral gavage, fasted): 1.75 h; MRT last ([4]; 10 mg/kg oral gavage, fasted): 1.89 h |
| O=C([C@H](CO)c1ccc(F)cc1F)N1CC(=C2CN(S(=O)(=O)c3ccccn3)C2)C1 [Compound 83, (S)-2-(2,4-difluorophenyl)-3-hydroxy-1-(1'-(pyridin-2-ylsulfonyl)-1',4'-dihydro-2H,2'H-[3,3'-diazetidinylidene]-1(4H)-yl)propan-1-one] | 537 ng·h/mL | 731 ng/mL | 0.08 h | 29.9 mL/min/kg | 4.91 h | 2.12 h | 5.11 L/kg | 3300 ng·h/mL | 1740 ng/mL | 0.25 h | 3.43 h | 3.2 h | 21.8 nM | 20.9 nM | 24.8 nM | 11.7 nM | 3110 ng·h/mL | 1590 ng/mL | 0.08 h | 11.2 mL/min/kg | half-life ([3]; 2 mg/kg intravenous injection): 3.72 h; MRT last ([3]; 2 mg/kg intravenous injection): 2.79 h; Vd ([3]; 2 mg/kg intravenous injection): 1.93 L/kg; AUC(0-t) ([3]; 5 mg/kg oral gavage, fasted): 12200 ng·h/mL; Cmax ([3]; 5 mg/kg oral gavage, fasted): 3300 ng/mL; Tmax ([3]; 5 mg/kg oral gavage, fasted): 0.67 h; half-life ([3]; 5 mg/kg oral gavage, fasted): 5.21 h; MRT last ([3]; 5 mg/kg oral gavage, fasted): 4.51 h; AUC(0-t) ([4]; 1 mg/kg intravenous injection): 260 ng·h/mL; Cmax ([4]; 1 mg/kg intravenous injection): 570 ng/mL; Tmax ([4]; 1 mg/kg intravenous injection): 0.08 h; clearance ([4]; 1 mg/kg intravenous injection): 62.9 mL/min/kg; half-life ([4]; 1 mg/kg intravenous injection): 2.44 h; MRT last ([4]; 1 mg/kg intravenous injection): 1.33 h; Vd ([4]; 1 mg/kg intravenous injection): 6.3 L/kg; AUC(0-t) ([4]; 10 mg/kg oral gavage, fasted): 2010 ng·h/mL; Cmax ([4]; 10 mg/kg oral gavage, fasted): 1440 ng/mL; Tmax ([4]; 10 mg/kg oral gavage, fasted): 0.25 h; half-life ([4]; 10 mg/kg oral gavage, fasted): 2.03 h; MRT last ([4]; 10 mg/kg oral gavage, fasted): 1.71 h |

— patent EP4721737A1, “USE OF PHARMACEUTICAL COMPOSITION COMPRISING COMPOUND HAVING BIS(AZANYLYLIDENE) SULFONYL STRUCTURE FOR TREATING ANEMIA-RELATED DISEASES” (Scinnohub Pharmaceutical Co., Ltd., priority 2023, dated 2024)
